Measured values as given in patent US6150376A, “Bi- and tri-cyclic aza compounds and their uses” (Georgetown University, priority 1998, dated 2000).

Assays:
dopamine transporter [1] = molecular target: T1, dopamine transporter (Rattus norvegicus, UniProt P23977); assay: [3H]Mazindol binding at the dopamine transporter; settings: for Ki: Ki ± SE, Krebs-Ringer-HEPES buffer
T1 construct: from tissue
Protocol: (§1) Various isomeric forms of front-bridged Compounds 4, 5, 29, 30, 31, 40 and 50a and back-bridged Compounds 41, 42a, 42b, 49a and 50a were assayed for binding at the dopamine transporter and for inhibition of monamine re-uptake at the dopamine, serotonin and norepinephrine transporters. Mazindol binding were measured as previously described in Johnson et. al., 1992, Eur. J. Pharmacol., Mol. Pharmacol. Sect., 227:411-415. Reuptake inhibition was measured essentially as described in Yi et. al., 1991, Neuropharmacol. 29:475-486, except that an identical Krebs-Ringer-HEPES buffer was used for binding and all uptake assays (Slusher et al., 1997, Drug Alcohol Depend. 48:43-50).

dopamine transporter [2] = molecular target: T1, dopamine transporter; assay: [3H]DA uptake (re-uptake inhibition at the dopamine transporter); assay type: biochemical; settings: for Ki: Ki ± SE, Krebs-Ringer-HEPES buffer; for higher activity / selectivity at the DAT over the 5-HTT: reuptake inhibition, DAT over 5-HTT
Protocol: as §1

serotonin transporter = molecular target: T2, serotonin transporter (Rattus norvegicus, UniProt P31652); assay: [3H]5-HT uptake (re-uptake inhibition at the serotonin transporter); assay type: biochemical; settings: for Ki: Ki ± SE, Krebs-Ringer-HEPES buffer; for 5-HT/DA (ratio of uptake Ki): ratio of 5-HT uptake Ki to DA uptake Ki
T2 construct: from tissue
T2 sequence (P31652 whole entry): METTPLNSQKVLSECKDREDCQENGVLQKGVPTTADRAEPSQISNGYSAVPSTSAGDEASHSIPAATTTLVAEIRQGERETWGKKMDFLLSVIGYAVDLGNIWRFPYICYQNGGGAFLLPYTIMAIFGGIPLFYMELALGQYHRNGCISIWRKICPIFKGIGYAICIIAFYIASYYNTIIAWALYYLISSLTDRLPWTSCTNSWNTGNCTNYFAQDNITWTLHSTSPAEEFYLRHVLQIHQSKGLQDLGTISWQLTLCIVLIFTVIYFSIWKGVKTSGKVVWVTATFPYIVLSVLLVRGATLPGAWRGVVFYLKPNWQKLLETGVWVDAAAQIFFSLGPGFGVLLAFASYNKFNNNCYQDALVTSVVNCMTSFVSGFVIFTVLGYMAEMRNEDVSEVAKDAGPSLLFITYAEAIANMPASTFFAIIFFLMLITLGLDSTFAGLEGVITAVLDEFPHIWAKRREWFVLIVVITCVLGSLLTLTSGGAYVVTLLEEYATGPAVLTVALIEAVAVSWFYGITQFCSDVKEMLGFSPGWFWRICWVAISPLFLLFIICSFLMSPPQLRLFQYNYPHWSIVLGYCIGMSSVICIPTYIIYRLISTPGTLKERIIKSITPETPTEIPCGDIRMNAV
Protocol: as §1

[3] = molecular target: T3, norepinephrine transporter (Rattus norvegicus, UniProt Q63380); assay: [3H]NE uptake (re-uptake inhibition at the norepinephrine transporter); assay type: biochemical; settings: Ki ± SE; Krebs-Ringer-HEPES buffer
T3 construct: from tissue
T3 sequence (Q63380 1-617): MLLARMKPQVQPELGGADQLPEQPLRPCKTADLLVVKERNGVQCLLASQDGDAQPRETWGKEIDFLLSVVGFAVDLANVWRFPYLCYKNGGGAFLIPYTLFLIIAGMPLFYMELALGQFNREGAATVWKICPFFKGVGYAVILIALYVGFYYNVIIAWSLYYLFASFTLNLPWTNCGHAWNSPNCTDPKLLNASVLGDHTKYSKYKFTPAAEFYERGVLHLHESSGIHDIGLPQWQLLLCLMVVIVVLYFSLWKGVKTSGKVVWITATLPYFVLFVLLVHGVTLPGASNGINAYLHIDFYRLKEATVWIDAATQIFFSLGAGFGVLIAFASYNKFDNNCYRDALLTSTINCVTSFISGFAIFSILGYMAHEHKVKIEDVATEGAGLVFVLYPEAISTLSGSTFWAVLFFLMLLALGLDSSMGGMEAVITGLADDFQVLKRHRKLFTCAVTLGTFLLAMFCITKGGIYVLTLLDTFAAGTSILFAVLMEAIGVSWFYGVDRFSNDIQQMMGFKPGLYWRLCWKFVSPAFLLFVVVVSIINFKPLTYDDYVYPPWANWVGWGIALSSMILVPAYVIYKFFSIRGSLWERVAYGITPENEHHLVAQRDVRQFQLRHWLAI
Protocol: as §1

[4] = Preskorn, 1994; cited from earlier work
[5] = tested on: serotonin and norepinephrine re-uptake; settings: in words; cited from earlier work

T1 sequence (P23977 whole entry): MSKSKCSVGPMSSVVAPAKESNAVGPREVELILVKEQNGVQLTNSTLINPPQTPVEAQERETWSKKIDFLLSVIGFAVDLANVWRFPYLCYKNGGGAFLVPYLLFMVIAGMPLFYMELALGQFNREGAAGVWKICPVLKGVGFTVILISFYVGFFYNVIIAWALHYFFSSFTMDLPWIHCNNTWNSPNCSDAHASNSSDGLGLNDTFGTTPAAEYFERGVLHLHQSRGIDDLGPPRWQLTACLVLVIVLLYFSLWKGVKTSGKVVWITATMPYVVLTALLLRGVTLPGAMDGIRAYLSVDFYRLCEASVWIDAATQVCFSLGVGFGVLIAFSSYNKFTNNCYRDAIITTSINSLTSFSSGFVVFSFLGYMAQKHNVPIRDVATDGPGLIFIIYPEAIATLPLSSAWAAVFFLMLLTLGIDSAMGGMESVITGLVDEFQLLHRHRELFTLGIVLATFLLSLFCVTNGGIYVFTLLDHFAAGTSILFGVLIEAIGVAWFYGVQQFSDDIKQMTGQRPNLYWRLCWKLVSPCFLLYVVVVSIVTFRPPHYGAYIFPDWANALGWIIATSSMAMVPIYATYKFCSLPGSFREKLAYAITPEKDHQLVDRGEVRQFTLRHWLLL

| Compound | Ki (dopamine transporter [1]) [µM] | Ki (dopamine transporter [2]) [µM] | Ki (serotonin transporter) [µM] | 5-HT/DA (ratio of uptake Ki) (serotonin transporter) | Ki [3] [µM] | more active at the 5-HTT (5-HTT/NET selectivity) (serotonin transporter; reuptake inhibition, 5-HTT over NET) [fold] | higher activity / selectivity at the DAT over the 5-HTT (dopamine transporter [2]) [fold] | binding potency relative to (-)-40 (dopamine transporter [1]; in words) | time to full antidepressant effect [4] [days] | selectivity for serotonin (dual serotonin and norepinephrine re-uptake inhibitor) [5] |
| --- | --- | --- | --- | --- | --- | --- | --- | --- | --- | --- |
| CCCC[C@@H]1CC[C@@H]2C3CN[C@H]2C[C@@]31c1ccc(C)cc1 (racemic) [Compound 42a, (1SR, 3SR, 4RS, 5SR, 7RS)-4-butyl-3-(4-methylphenyl)-10-azatricyclo[5.3.0.0^3,8]decane] | 0.004 ± 7e-05 | 0.00223 ± 0.00012 | 0.014 ± 0.00058 | 6.3 | 0.00299 ± 0.00017 | – | – | – | – | – |
| O=C1CN2CCC(c3ccc(Cl)cc3)C1C2 (stereo not drawn) [Compound (-)-4] | 10.5 ± 0.93 | 16.5 ± 0.97 | 1.89 ± 0.44 | 0.11 | 70.9 ± 18 | 38 | – | – | – | – |
| (1SR, 2SR, 3RS, 5RS, 7SR)-2-butyl-methylphenyl)-10-azatricyclo [5.3.0.0^5,10 ]decane [Compound 50a] | 0.149 ± 0.00575 | 0.149 ± 0.00213 | 0.81 ± 0.0795 | 5.4 | 0.0517 ± 0.012 | – | – | – | – | – |
| O=C1CN2CCC(c3ccc(Cl)cc3)C1C2 (stereo not drawn) [Compound (+)-5] | 6.77 ± 0.5 | 10.5 ± 0.45 | 25.1 ± 3.6 | 2.4 | 4.53 ± 0.41 | – | 2.4 | – | – | – |
| Cc1ccc(C2CC3CCC4C2c2ccccc2CN34)cc1 (racemic) [Compound 45] | 0.00686 ± 0.00043 | 0.0239 ± 0.00133 | 0.00177 | 0.074 | 0.00106 ± 3e-05 | – | – | – | – | – |
| C=C1CN2C3CCC2C1C(c1ccc(C)cc1)C3 (racemic) [Compound (±)-40] | 0.0617 ± 0.0085 | 0.0603 | 0.00232 ± 0.00023 | 0.038 | 0.00269 ± 0.00012 | – | – | only slightly decreased from that of the (-)-40 | – | – |
| O=C1CN2CCC(c3ccc(Cl)cc3)C1C2 (stereo not drawn) [Compound (+)-4] | 18.5 ± 2.7 | 27.6 ± 1 | 4.63 ± 0.76 | 0.16 | 38.3 ± 4.61 | – | – | – | – | – |
| O=C1CN2CCC(c3ccc(Cl)cc3)C1C2 (stereo not drawn) [Compound (-)-5] | 9.74 ± 0.16 | 9.05 ± 0.46 | 11.9 ± 0.61 | 1.3 | 4.65 ± 0.44 | – | 1.3 | – | – | – |
| COc1ccc(C(CN(C)C)C2(O)CCCCC2)cc1 (stereo not drawn) [venlafaxine] | – | – | – | – | – | – | – | – | 4 to 7 | five-fold selectivity for serotonin |
| (1R, 2S, 4R, 7S)-(-)-10-methylene-2-(p-tolyl)-8-azatricyclo [5.2.0.0^4.8 ] decane [Compound (-)-40] | 0.0543 ± 0.0102 | 0.0603 ± 0.0004 | 0.00176 | 0.029 | 0.00524 ± 7e-05 | – | – | – | – | – |
